The record followed here is patent US6977262B2, “Dihydropyrazolopyridine compounds and pharmaceutical use thereof” (Mitsubishi Pharma Corporation, priority 2001, dated 2005).

Some results are limits rather than exact numbers.

As usually defined, the melting point is the temperature of the solid-liquid transition. As for `CCCC1=C(C(=O)OCC)C(c2ccc(Cl)s2)c2c[nH]nc2N1.O=C(O)/C=C\C(=O)O` (stereo not shown) [Example 64, Ethyl 4-(5-chlorothiophen-2-yl)-4,7-dihydro-6-propyl-2H-pyrazolo[3,4-b]pyridine-5-carboxylate maleate], the melting point was in the range of 129 to 131 °C.
Next, `N#CC1=C(C2CCNCC2)Nc2n[nH]cc2C1c1ccccc1Cl` (stereo not shown) [Example 1055, 4-(2-Chlorophenyl)-5-cyano-4,7-dihydro-6-(piperidin-4-yl)-2H-pyrazolo[3,4-b]pyridine]: 221 °C; `CC(C)C1=C(C#N)C(c2cccc(C#N)c2Br)c2c[nH]nc2N1` (stereo not shown) [Example 260, 4-(2-Bromo-3-cyanophenyl)-5-cyano-4,7-dihydro-6-isopropyl-2H-pyrazolo[3,4-b]pyridine]: over 250 °C.
As for `N#CC1=C(C2CCCCC2)Nc2n[nH]cc2C1c1ccccc1Cl` (stereo not shown) [Example 306, 4-(2-Chlorophenyl)-5-cyano-6-cyclohexyl-4,7-dihydro-2H-pyrazolo[3,4-b]pyridine], the figure is 163 °C.
For `CCOC(=O)/C=C/C1=C(C#N)C(c2ccccc2Cl)c2c[nH]nc2N1` (stereo not drawn) [Example 253, 4-(2-Chlorophenyl)-5-cyano-4,7-dihydro-6-(trans-2-ethoxycarbonylethenyl)-2H-pyrazolo[3,4-b]pyridine], the melting point is 240 to 243 °C (dec.).
Regarding `CCOC(=O)C1=C(CC)Nc2n[nH]cc2C1c1ccccc1Cl` (stereo not shown) [Example 82, Ethyl 4-(2-chlorophenyl)-6-ethyl-4,7-dihydro-2H-pyrazolo[3,4-b]pyridine-5-carboxylate], the melting point came to 213 °C.
Consider `CCCC1=C([N+](=O)[O-])C(c2cccc(Cl)c2Cl)c2c[nH]nc2N1` (stereo not shown) [Example 122, 4-(2,3-Dichlorophenyl)-4,7-dihydro-5-nitro-6-propyl-2H-pyrazolo[3,4-b]pyridine], for which the melting point stood at 239 °C.
Next, `CCCC1=C(C(=O)OCC)C(c2cccc3c2CCC3)c2c[nH]nc2N1` (stereo not shown) [Example 103, Ethyl 4,7-dihydro-4-(indan-4-yl)-6-propyl-2H-pyrazolo[3,4-b]pyridine-5-carboxylate]: 181 to 183 °C.
Take `CCCC1=C(C#N)C(c2ccccc2Cl)c2c(n[nH]c2CC)N1` (stereo not shown) [Example 309, 4-(2-Chlorophenyl)-5-cyano-4,7-dihydro-3-ethyl-6-propyl-2H-pyrazolo[3,4-b]pyridine]: the melting point was 269 °C.
`CCCC1=C(C(=O)OCC)C(c2cccc(C)c2OC)c2c[nH]nc2N1` (stereo not shown) [Example 190, Ethyl 4,7-dihydro-4-(2-methoxy-3-methylphenyl)-6-propyl-2H-pyrazolo[3,4-b]pyridine-5-carboxylate] yielded a melting point of 220 to 222 °C.
In the case of `CCOC(=O)C1=C(Cc2ccccc2)Nc2n[nH]cc2C1c1ccccc1Cl` (stereo not shown) [Example 88, Ethyl 6-benzyl-4-(2-chlorophenyl)-4,7-dihydro-2H-pyrazolo[3,4-b]pyridine-5-carboxylate], the melting point was determined as 247 °C.
As for `N#CC1=C(c2ccncc2)Nc2n[nH]cc2C1c1cccc2nonc12` (stereo not shown) [Example 166, 4-(2,1,3-Benzoxadiazol-4-yl)-5-cyano-4,7-dihydro-6-(pyridin-4-yl)-2H-pyrazolo[3,4-b]pyridine], the figure is 236 °C; as for `N#CC1=C(c2cccs2)Nc2n[nH]cc2C1c1cccc2nonc12` (stereo not shown) [Example 171, 4-(2,1,3-Benzoxadiazol-4-yl)-5-cyano-4,7-dihydro-6-(thiophen-2-yl)-2H-pyrazolo[3,4-b]pyridine], 230 °C; as for `COc1ccc(C2=C(C#N)C(c3cccc4nonc34)c3c[nH]nc3N2)cc1` (stereo not shown) [Example 161, 4-(2,1,3-Benzoxadiazol-4-yl)-5-cyano-4,7-dihydro-6-(4-methoxyphenyl)-2H-pyrazolo[3,4-b]pyridine], 244 °C.
Next, `CC(=O)CC1=C(C#N)C(c2cccc3nonc23)c2c[nH]nc2N1` (stereo not shown) [Example 1061, 6-Acetylmethyl-4-(2,1,3-benzoxadiazol-4-yl)-5-cyano-4,7-dihydro-2H-pyrazolo[3,4-b]pyridine]: 200 °C; `CCCC1=C(C(=O)OCC)C(c2ccccc2OC)c2c[nH]nc2N1` (stereo not shown) [Example 32, Ethyl 4,7-dihydro-4-(2-methoxyphenyl)-6-propyl-2H-pyrazolo[3,4-b]pyridine-5-carboxylate]: 169 °C.
Next, `CCCC1=C(C(=O)OCC)C(c2ccccc2[S+](C)[O-])c2c[nH]nc2N1` (stereo not shown) [Example 40, Ethyl 4,7-dihydro-4-(2-methylsulfinylphenyl)-6-propyl-2H-pyrazolo[3,4-b]pyridine-5-carboxylate]: 216 °C; `CCCC1=C(C(=O)OCC)C(c2cccs2)c2c[nH]nc2N1.O=C(O)/C=C\C(=O)O` (stereo not shown) [Example 62, Ethyl 4,7-dihydro-6-propyl-4-(thiophen-2-yl)-2H-pyrazolo[3,4-b]pyridine-5-carboxylate maleate]: 129 to 131 °C; `N#CC1=C(c2ccccc2)Nc2n[nH]cc2C1c1ccccc1C#N` (stereo not shown) [Example 144, 5-Cyano-4-(2-cyanophenyl)-4,7-dihydro-6-phenyl-2H-pyrazolo[3,4-b]pyridine]: 148 °C.
In turn, `CC(C)N1CCC(C2=C(C#N)C(c3cccc4nonc34)c3c[nH]nc3N2)CC1` (stereo not shown) [Example 1035, 4-(2,1,3-Benzoxadiazol-4-yl)-5-cyano-4,7-dihydro-6-(1-iso-propylpiperidin-4-yl)-2H-pyrazolo[3,4-b]pyridine] yielded a melting point of 260 °C.
Next, `N#CC1=C(c2ccco2)Nc2n[nH]cc2C1c1cccc2nonc12` (stereo not shown) [Example 170, 4-(2,1,3-Benzoxadiazol-4-yl)-5-cyano-6-(furan-2-yl)-4,7-dihydro-2H-pyrazolo[3,4-b]pyridine]: 241 °C; `CCOC(=O)C1=C(C(F)(F)F)Nc2n[nH]cc2C1c1ccccc1` (stereo not shown) [Example 12, Ethyl 4,7-dihydro-4-phenyl-6-trifluoromethyl-2H-pyrazolo[3,4-b]pyridine-5-carboxylate]: 110 to 115 °C; `CCCC1=C(C#N)C(c2cccc3nonc23)c2c[nH]nc2N1` (stereo not shown) [Example 137, 4-(2,1,3-Benzoxadiazol-4-yl)-5-cyano-4,7-dihydro-6-propyl-2H-pyrazolo[3,4-b]pyridine]: 194 °C.
Next, `CCCC1=C(C(=O)OCC)C(c2ccccc2Cl)c2cn(C(=O)OC)nc2N1` (stereo not shown) [Example 207, Ethyl 4-(2-chlorophenyl)-4,7-dihydro-2-methoxycarbonyl-6-propyl-2H-pyrazolo[3,4-b]pyridine-5-carboxylate]: 141 to 143 °C.
For `CCC1=C(C#N)C(c2cccc(C#N)c2Br)c2c[nH]nc2N1` (stereo not shown) [Example 198, 4-(2-Bromo-3-cyanophenyl)-5-cyano-6-ethyl-4,7-dihydro-2H-pyrazolo[3,4-b]pyridine], the melting point is over 300 °C.
Next, `N#CC1=C(C2CCCCC2)Nc2n[nH]cc2C1c1cccc(C#N)c1Br` (stereo not shown) [Example 325, 4-(2-Bromo-3-cyanophenyl)-5-cyano-6-cyclohexyl-4,7-dihydro-2H-pyrazolo[3,4-b]pyridine]: 193 °C.
Next, `CS(=O)(=O)N1CCC(C2=C(C#N)C(c3cccc4nonc34)c3c[nH]nc3N2)CC1` (stereo not shown) [Example 1029, 4-(2,1,3-Benzoxadiazol-4-yl)-5-cyano-4,7-dihydro-6-(1-methanesulfonylpiperidin-4-yl)-2H-pyrazolo[3,4-b]pyridine]: 243 °C.
`COc1ccccc1C1C(C#N)=C(c2ccccc2)Nc2n[nH]cc21` (stereo not shown) [Example 150, 5-Cyano-4,7-dihydro-4-(2-methoxyphenyl)-6-phenyl-2H-pyrazolo[3,4-b]pyridine] returned a melting point of 206 °C.
As for `N#CC1=C(C2CC2)Nc2n[nH]cc2C1c1cccc2nocc12` (stereo not shown) [Example 333, 4-(2,1-Benzoisoxazol-4-yl)-5-cyano-6-cyclopropyl-4,7-dihydro-2H-pyrazolo[3,4-b]pyridine], the melting point is 248 °C.
As for `N#CC1=C(c2cc3ccccc3s2)Nc2n[nH]cc2C1c1cccc2nonc12` (stereo not shown) [Example 305, 4-(2,1,3-Benzoxadiazol-4-yl)-6-(benzothiophen-2-yl)-5-cyano-4,7-dihydro-2H-pyrazolo[3,4-b]pyridine], the figure is 220 °C.
`N#CC1=C(C2CCCN2)Nc2n[nH]cc2C1c1cccc2nonc12` (stereo not shown) [Example 1070, 4-(2,1,3-Benzoxadiazol-4-yl)-5-cyano-4,7-dihydro-6-(pyrrolidin-2-yl)-2H-pyrazolo[3,4-b]pyridine] came in with a melting point of over 240 °C.
`CCCC1=C(C(=O)OCC)C(c2cnc[nH]2)c2c[nH]nc2N1` (stereo not shown) [Example 238, Ethyl 4,7-dihydro-4-(1H-imidazol-5-yl)-6-propyl-2H-pyrazolo[3,4-b]pyridine-5-carboxylate] came in with a melting point of 200 °C.
`CN(CCC1=C(C#N)C(c2cccc3nonc23)c2c[nH]nc2N1)C(=O)OC(C)(C)C` (stereo not shown) [Example 1015, 4-(2,1,3-Benzoxadiazol-4-yl)-6-(2-(N-t-butoxycarbonyl-N-methylamino)ethyl)-5-cyano-4,7-dihydro-2H-pyrazolo[3,4-b]-pyridine]: the melting point is 240 °C.
Next, `CCCC1=C(C#N)C(c2ccccc2Cl)c2c(n[nH]c2C2CC2)N1` (stereo not shown) [Example 308, 4-(2-Chlorophenyl)-5-cyano-3-cyclopropyl-4,7-dihydro-6-propyl-2H-pyrazolo[3,4-b]pyridine]: 270 °C; `COc1cccc(C2=C(C#N)C(c3cccc4nsnc34)c3c[nH]nc3N2)c1` (stereo not shown) [Example 164, 4-(2,1,3-Benzothiadiazol-4-yl)-5-cyano-4,7-dihydro-6-(3-methoxyphenyl)-2H-pyrazolo[3,4-b]pyridine]: 220 °C; `N#CC1=C(C2CCN(C(=O)c3ccccc3)CC2)Nc2n[nH]cc2C1c1cccc(C#N)c1Br` (stereo not shown) [Example 1052, 6-(1-Benzoylpiperidin-4-yl)-4-(2-bromo-3-cyanophenyl)-5-cyano-4,7-dihydro-2H-pyrazolo[3,4-b]pyridine]: over 280 °C.
Compound `COc1ccccc1C1C(C#N)=C(C(C)C)Nc2n[nH]cc21` (stereo not shown) [Example 265, 5-Cyano-4,7-dihydro-6-isopropyl-4-(2-methoxyphenyl)-2H-pyrazolo[3,4-b]pyridine] came in with a melting point of over 250 °C.
